Experimental data taken from patent publication US20260015360A1 (MOMA Therapeutics, Inc., priority 2023, published 2026).
Like-named read-outs stand apart in the source and are kept apart here.

Tests used:
DLD1 BRCA2 (−/−) cells = assay: DLD1 viability assay (CellTiter-Glo, 7 days), DLD1 BRCA2 (−/−); type: cell-based; settings: read-out: Viability IC50 (μM) DLD1 BRCA2 null
Description: (§1) The seeding densities are pre-determined from the growth curve kinetics performed to ensure log linear phase of cell growth for these 2 cell lines. These assay plates are then placed in the incubator at 37° C., 5% CO2, relative humidity>90% for a few hours before addition of test compounds. Compounds are dispensed using the Tecan HPD300 or Echo based on the plate map in the appropriate wells of the 384-well plates. […] After addition of the test compounds, the plates are incubated at 37° C., 5% CO2, relative humidity>90% for 7 days. CellTiter-Glo (Promega Cat. No. G7573), ATP detection reagent is prepared according to manufacturer's specifications. Cell assay plates are removed from incubator and bring to room temperature (RT) by letting them sit at bench top for at least 15 min. Using the MultiDrop liquid handler or a multichannel pipette, 35 μL/well of CTG is added and the plates are then placed shakes for 5 seconds, RT. These plates are then incubated for 30 minutes in the dark at RT before measuring luminescence using Spectramax/Enspire/Ensight/Envision/PheraSTAR.

DLD1 WT cells = assay: DLD1 viability assay (CellTiter-Glo, 7 days), DLD1 WT; type: cell-based
Description: as §1

COc1cnc(Cl)cc1-c1cc(C)ncc1C(=O)Nc1nc2ncc(N3CC[C@](C)(OC)[C@H](F)C3)nc2s1 (single isomer, unassigned) [Example 362, 2′-chloro-N-(6-((3R or S,4S or R)-3-fluoro-4-methoxy-4-methylpiperidin-1-yl)thiazolo[4,5-b]pyrazin-2-yl)-5′-methoxy-6-methyl-[4,4′-bipyridine]-3-carboxamide]
IC50 (DLD1 BRCA2 (−/−) cells; Homo sapiens, DLD-1, 168 h): 0.1 to 0.25 µM | IC50 (DLD1 WT cells; Homo sapiens, DLD-1, 168 h): > 10 µM

COc1cnc(Cl)cc1-c1cc(C)ncc1C(=O)Nc1nc2ncc([C@H]3CCN(CC(F)(F)F)C3)nc2s1 (single isomer, unassigned) [Example 364, (S or R)-2′-chloro-5′-methoxy-6-methyl-N-(6-(1-(2,2,2-trifluoroethyl)pyrrolidin-3-yl)thiazolo[4,5-b]pyrazin-2-yl)-[4,4′-bipyridine]-3-carboxamide]
IC50 (DLD1 BRCA2 (−/−) cells; Homo sapiens, DLD-1, 168 h): 0.1 to 0.25 µM | IC50 (DLD1 WT cells; Homo sapiens, DLD-1, 168 h): > 10 µM

COc1cnc(Cl)cc1-c1cc(C)ncc1C(=O)Nc1nc2ncc([C@@H]3CCN(CC(F)(F)F)C3)nc2s1 (single isomer, unassigned) [Example 365, (R or S)-2′-chloro-5′-methoxy-6-methyl-N-(6-(1-(2,2,2-trifluoroethyl)pyrrolidin-3-yl)thiazolo[4,5-b]pyrazin-2-yl)-[4,4′-bipyridine]-3-carboxamide]
IC50 (DLD1 BRCA2 (−/−) cells; Homo sapiens, DLD-1, 168 h): 0.001 to 0.1 µM | IC50 (DLD1 WT cells; Homo sapiens, DLD-1, 168 h): > 10 µM

COc1cnc(Cl)cc1-c1cc(C)ncc1C(=O)Nc1nc2ncc(N3CC[C@](C)(O)[C@H](F)C3)nc2s1 (single isomer, unassigned) [Example 375, 2′-chloro-N-(6-((3R or S,4S or R)-3-fluoro-4-hydroxy-4-methylpiperidin-1-yl)thiazolo[4,5-b]pyrazin-2-yl)-5′-methoxy-6-methyl-[4,4′-bipyridine]-3-carboxamide]
IC50 (DLD1 BRCA2 (−/−) cells; Homo sapiens, DLD-1, 168 h): 0.001 to 0.1 µM | IC50 (DLD1 WT cells; Homo sapiens, DLD-1, 168 h): > 10 µM

COc1cnc(Cl)cc1-c1cc(C)ncc1C(=O)Nc1nc2ncc(N3CC[C@@](C)(O)[C@@H](F)C3)nc2s1 (single isomer, unassigned) [Example 376, 2′-chloro-N-(6-((3S or R,4R or S)-3-fluoro-4-hydroxy-4-methylpiperidin-1-yl)thiazolo[4,5-b]pyrazin-2-yl)-5′-methoxy-6-methyl-[4,4′-bipyridine]-3-carboxamide]
IC50 (DLD1 BRCA2 (−/−) cells; Homo sapiens, DLD-1, 168 h): 0.001 to 0.1 µM | IC50 (DLD1 WT cells; Homo sapiens, DLD-1, 168 h): > 10 µM

COc1cnc(Cl)cc1-c1cc(C)ncc1C(=O)Nc1nc2ncc(C3CN(CC(F)(F)F)C3)nc2s1 (single isomer, unassigned) [Example 378, 2′-chloro-5′-methoxy-6-methyl-N-(6-(1-(2,2,2-trifluoroethyl)azetidin-3-yl)thiazolo[4,5-b]pyrazin-2-yl)-[4,4′-bipyridine]-3-carboxamide]
IC50 (DLD1 BRCA2 (−/−) cells; Homo sapiens, DLD-1, 168 h): 0.001 to 0.1 µM | IC50 (DLD1 WT cells; Homo sapiens, DLD-1, 168 h): > 10 µM

COc1cnc(Cl)cc1-c1cc(C)ncc1C(=O)Nc1nc2ncc([C@H]3CCOC(C)(C)C3)nc2s1 (single isomer, unassigned) [Example 379, (S or R)-2′-chloro-N-(6-(2,2-dimethyltetrahydro-2H-pyran-4-yl)thiazolo[4,5-b]pyrazin-2-yl)-5′-methoxy-6-methyl-[4,4′-bipyridine]-3-carboxamide]
IC50 (DLD1 BRCA2 (−/−) cells; Homo sapiens, DLD-1, 168 h): 0.001 to 0.1 µM | IC50 (DLD1 WT cells; Homo sapiens, DLD-1, 168 h): > 10 µM

COc1cnc(Cl)cc1-c1cc(C)ncc1C(=O)Nc1nc2ncc([C@@H]3CCOC(C)(C)C3)nc2s1 (single isomer, unassigned) [Example 382, (R or S)-2′-chloro-N-(6-(2,2-dimethyltetrahydro-2H-pyran-4-yl)thiazolo[4,5-b]pyrazin-2-yl)-5′-methoxy-6-methyl-[4,4′-bipyridine]-3-carboxamide]
IC50 (DLD1 BRCA2 (−/−) cells; Homo sapiens, DLD-1, 168 h): 0.001 to 0.1 µM | IC50 (DLD1 WT cells; Homo sapiens, DLD-1, 168 h): > 10 µM

COc1cnc(Cl)cc1-c1cc(C)ncc1C(=O)Nc1nc2ncc(N3CCO[C@H](C)[C@@H]3C)nc2s1 (single isomer, unassigned) [Example 400, 2′-chloro-N-(6-((2R or S,3S or R)-2,3-dimethylmorpholino)thiazolo [4,5-b]pyrazin-2-yl)-5′-methoxy-6-methyl-[4,4′-bipyridine]-3-carboxamide]
IC50 (DLD1 BRCA2 (−/−) cells; Homo sapiens, DLD-1, 168 h): 0.001 to 0.1 µM | IC50 (DLD1 WT cells; Homo sapiens, DLD-1, 168 h): > 10 µM

COc1cnc(Cl)cc1-c1cc(C)ncc1C(=O)Nc1nc2ncc(C3=CCC(O)(C(F)(F)F)CC3)nc2s1 (single isomer, unassigned) [Example 413, 2′-chloro-N-(6-(4-hydroxy-4-(trifluoromethyl)cyclohex-1-en-1-yl)thiazolo[4,5-b]pyrazin-2-yl)-5′-methoxy-6-methyl-[4,4′-bipyridine]-3-carboxamide]
IC50 (DLD1 BRCA2 (−/−) cells; Homo sapiens, DLD-1, 168 h): 0.001 to 0.1 µM | IC50 (DLD1 WT cells; Homo sapiens, DLD-1, 168 h): > 10 µM

COc1cnc(Cl)cc1-c1cc(C)ncc1C(=O)Nc1nc2ncc([C@H]3CCO[C@H](C)C3)nc2s1 (single isomer, unassigned) [Example 431, 2′-chloro-5′-methoxy-6-methyl-N-(6-((2R or S,4S or R)-2-methyltetrahydro-2H-pyran-4-yl)thiazolo[4,5-b]pyrazin-2-yl)-[4,4′-bipyridine]-3-carboxamide]
IC50 (DLD1 BRCA2 (−/−) cells; Homo sapiens, DLD-1, 168 h): 0.001 to 0.1 µM | IC50 (DLD1 WT cells; Homo sapiens, DLD-1, 168 h): > 10 µM

COc1cnc(Cl)cc1-c1cc(C)ncc1C(=O)Nc1nc2ncc([C@H]3CCO[C@@H](C)C3)nc2s1 (single isomer, unassigned) [Example 434A, 2′-chloro-5′-methoxy-6-methyl-N-(6-((2S or R,4S or R)-2-methyltetrahydro-2H-pyran-4-yl)thiazolo[4,5-b]pyrazin-2-yl)-[4,4′-bipyridine]-3-carboxamide]
IC50 (DLD1 BRCA2 (−/−) cells; Homo sapiens, DLD-1, 168 h): 0.001 to 0.1 µM | IC50 (DLD1 WT cells; Homo sapiens, DLD-1, 168 h): > 10 µM

COc1cnc(Cl)cc1-c1cc(C)ncc1C(=O)Nc1nc2ncc([C@@H]3CCO[C@H](C)C3)nc2s1 (single isomer, unassigned) [Example 435, 2′-chloro-5′-methoxy-6-methyl-N-(6-((2R or S,4R or S)-2-methyltetrahydro-2H-pyran-4-yl)thiazolo[4,5-b]pyrazin-2-yl)-[4,4′-bipyridine]-3-carboxamide]
IC50 (DLD1 BRCA2 (−/−) cells; Homo sapiens, DLD-1, 168 h): 0.001 to 0.1 µM | IC50 (DLD1 WT cells; Homo sapiens, DLD-1, 168 h): > 10 µM

COc1cnc(Cl)cc1-c1cc(C)ncc1C(=O)Nc1nc2ncc(N3CC[C@H](OC)C(F)(F)C3)nc2s1 (single isomer, unassigned) [Example 441, (S or R)-2′-chloro-N-(6-(3,3-difluoro-4-methoxypiperidin-1-yl)thiazolo[4,5-b]pyrazin-2-yl)-5′-methoxy-6-methyl-[4,4′-bipyridine]-3-carboxamide]
IC50 (DLD1 BRCA2 (−/−) cells; Homo sapiens, DLD-1, 168 h): 0.001 to 0.1 µM | IC50 (DLD1 WT cells; Homo sapiens, DLD-1, 168 h): 0.001 to 2.5 µM

COc1cnc(Cl)cc1-c1cc(C)ncc1C(=O)Nc1nc2ncc(N3CCC(OC)C(F)(F)C3)nc2s1 (single isomer, unassigned) [Example 444, (R or S)-2′-chloro-N-(6-(3,3-difluoro-4-methoxypiperidin-1-yl)thiazolo[4,5-b]pyrazin-2-yl)-5′-methoxy-6-methyl-[4,4′-bipyridine]-3-carboxamide]
IC50 (DLD1 BRCA2 (−/−) cells; Homo sapiens, DLD-1, 168 h): 0.001 to 0.1 µM | IC50 (DLD1 WT cells; Homo sapiens, DLD-1, 168 h): > 10 µM

COc1cnc(Cl)cc1-c1cc(C)ncc1C(=O)Nc1nc2ncc(N3CCC(O)C(F)(F)C3)nc2s1 (single isomer, unassigned) [Example 457, (S or R)-2′-chloro-N-(6-(3,3-difluoro-4-hydroxypiperidin-1-yl)thiazolo[4,5-b]pyrazin-2-yl)-5′-methoxy-6-methyl-[4,4′-bipyridine]-3-carboxamide]
IC50 (DLD1 BRCA2 (−/−) cells): 0.1 to 0.25 µM | IC50 (DLD1 WT cells; Homo sapiens, DLD-1, 168 h): > 10 µM

COc1cnc(Cl)cc1-c1cc(C)ncc1C(=O)Nc1nc2ncc(N3CCC(O)C(F)(F)C3)nc2s1 (single isomer, unassigned) [Example 458, (R or S)-2′-chloro-N-(6-(3,3-difluoro-4-hydroxypiperidin-1-yl)thiazolo[4,5-b]pyrazin-2-yl)-5′-methoxy-6-methyl-[4,4′-bipyridine]-3-carboxamide]
IC50 (DLD1 BRCA2 (−/−) cells): 0.001 to 0.1 µM | IC50 (DLD1 WT cells): > 10 µM

COc1ccccc1-c1cc(C)ncc1C(=O)Nc1nc2ccc(N3CCCCC3)cc2s1 [Example 91, 4-(2-Methoxyphenyl)-6-methyl-N-(6-(piperidin-1-yl)benzo[d]thiazol-2-yl)nicotinamide]
IC50 (DLD1 BRCA2 (−/−) cells; Homo sapiens, DLD-1, 168 h): 0.5 to 2 µM | IC50 (DLD1 WT cells; Homo sapiens, DLD-1, 168 h): 7.5 to 10 µM

COc1cnc(Cl)cc1-c1cc(C)ncc1C(=O)Nc1nc2ncc(C3CCC(OC)(C(F)F)CC3)nc2s1 (centres unmarked) [Example 383, 2′-chloro-N-(6-(4-(difluoromethyl)-4-methoxycyclohexyl)thiazolo [4,5-b]pyrazin-2-yl)-5′-methoxy-6-methyl-[4,4′-bipyridine]-3-carboxamide]
IC50 (DLD1 BRCA2 (−/−) cells; Homo sapiens, DLD-1, 168 h): 0.001 to 0.1 µM | IC50 (DLD1 WT cells; Homo sapiens, DLD-1, 168 h): > 10 µM

COc1nnc(C(F)F)cc1-c1cc(C)ncc1C(=O)Nc1nc2ncc(-c3ccnc(C)c3)nc2s1 [Example 384, 4-(6-(difluoromethyl)-3-methoxypyridazin-4-yl)-6-methyl-N-(6-(2-methylpyridin-4-yl)thiazolo[4,5-b]pyrazin-2-yl)nicotinamide]
IC50 (DLD1 BRCA2 (−/−) cells; Homo sapiens, DLD-1, 168 h): 0.1 to 0.25 µM | IC50 (DLD1 WT cells; Homo sapiens, DLD-1, 168 h): > 10 µM

COc1cnc(Cl)cc1-c1cc(C)ncc1C(=O)Nc1nc2ncc(C3=CCC(OC)(C(F)F)CC3)nc2s1 (centres unmarked) [Example 388, 2′-chloro-N-(6-(4-(difluoromethyl)-4-methoxycyclohex-1-en-1-yl)thiazolo[4,5-b]pyrazin-2-yl)-5′-methoxy-6-methyl-[4,4′-bipyridine]-3-carboxamide]
IC50 (DLD1 BRCA2 (−/−) cells; Homo sapiens, DLD-1, 168 h): 0.001 to 0.1 µM | IC50 (DLD1 WT cells; Homo sapiens, DLD-1, 168 h): > 10 µM

COc1cnc(Cl)cc1-c1cc(C)ncc1C(=O)Nc1nc2ncc(C3CCOC(C)(C)C3)nc2s1 (centres unmarked) [Example 389, 2′-chloro-N-(6-(2,2-dimethyltetrahydro-2H-pyran-4-yl)thiazolo[4,5-b]pyrazin-2-yl)-5′-methoxy-6-methyl-[4,4′-bipyridine]-3-carboxamide]
IC50 (DLD1 BRCA2 (−/−) cells; Homo sapiens, DLD-1, 168 h): 0.001 to 0.1 µM | IC50 (DLD1 WT cells; Homo sapiens, DLD-1, 168 h): > 10 µM
